Converted amounts (≈) assume the structure as drawn.
Columns and labels:
[1] = test system: anti-CPPU mAb 14G1; assay: conventional indirect competitive ELISA (icELISA) based on mAb 14G1; format: binding, mouse; conditions: for icELISA CR: CR = IC50 of CPPU/IC50 of analyte × 100%
Experimental: A conventional icELISA was developed for CPPU detection as follows: 0.5 μg/mL CPPU–BSA was dropped into the 96-well microplate (100 μL/well) and incubated overnight at 4 °C. The plates were blocked at 37 °C with 5% skim milk in PBST (PBS containing 0.05% Tween 20) for 1 h. After washing the plate with PBST three times, 50 μL of mAb 14G1 and 50 μL of sequentially diluted CPPU standard solution were added. The plate was incubated for 1 h at 37 °C, washed three times, and 100 μL/well of goat anti-mouse lgG-HRP solution was added for another 1 h of incubation. After washing six times, 100 μL/well of TMB substrate was added to the plate and reacted for 15 min. Finally, 2 M H2SO4 (50 μL/well) was added into the plate to stop the reaction, and the OD450 value was read with a microplate reader.
(§1) The cross-reactivities (CRs) of the developed MB-based assay and icELISA with compounds structurally related to CPPU were used to evaluate the selectivity of the assays. The CR value of each compound was calculated as follows: CR (%) = (IC50 of CPPU/IC50 of analyte) × 100%.
The experimental conditions of conventional icELISA were optimized. The evaluation criteria were the 50% inhibition concentration (IC50; representing the sensitivity) and maximum absorbance (ODmax) of the negative control. The working concentrations of the CPPU–BSA conjugate and mAb 14G1 were primarily optimized by a checkerboard titration. The concentration of CPPU–BSA coated in the plate was diluted from 2.0 μg/mL to 0.25 μg /mL, and anti-CPPU mAb 14G1 was diluted in a series of two-fold dilutions from 1:2000. […] After optimization, the concentrations of CPPU–BSA and mAb 14G1 were 0.5 μg/mL and 0.016 μg/mL for icELISA (Figure S2a). Then, the process parameters of icELISA were optimized through single-factor experiments. The influence of blocking reagents commonly used in ELISA systems, OVA, skim milk, and BSA, were evaluated and compared for their effectiveness in reducing nonspecific binding. Finally, 5% skim milk was selected, which gave a minimum IC50 value (Figure S2b). CPPU is a lipophilic, small organic compound, and methanol has been reported to be a more acceptable co-solvent for CPPU during the immunochemical reaction. The effect of methanol concentration on immunoassay performance was assessed. […] The ionic strength of 136 mM, which provided the lowest IC50 value, was selected. The pH value is one of the key factors influencing the characteristics of the assay. From Figure S2e, the value of pH 7.4 was selected as the optimum for the assay based on the favorable IC50 value. Under the optimal assay conditions, an indirect competitive ELISA standard curve was established (Figure 3). […] Moreover, the assay has a linear range (IC20–IC80) of 0.005–0.231 ng/mL.

[2] = test system: anti-CPPU mAb 14G1–HRP; assay: direct competitive magnetic-bead (MB)-based assay with mAb 14G1–HRP; format: binding, mouse; conditions: for MB-Based Assay CR: CR = IC50 of CPPU/IC50 of analyte × 100%
Experimental: A direct competitive MB-based assay was developed as follows. First, the 96-well microtiter plate was pre-sealed with 5% skim milk at 37 °C for 1 h. After washing with PBST, MB–CPPU–BSA (10 μg/μL, 10 μL per well) was added to the 96-well plate. Subsequently, 50 μL of serially diluted CPPU standards and 50 μL of diluted mAb–HRP (1:3200) were mixed into the wells. The plate was shaken well and incubated at 37 °C for 20 min and then placed on a magnetic base to precipitate the MB. Then, the supernatant was discarded, and the plate was washed three times with PBST. After washing, TMB substrate (100 μL per well) was added and incubated for 15 min at 37 °C. The reaction was stopped with 2 M H2SO4, and the absorbance was measured at a wavelength of 450 nm.
The reaction parameters greatly influence assay sensitivity. Therefore, the experimental parameters including concentrations of MB–CPPU–BSA and mAb–HRP, ionic strength, pH value, and organic solvent content in buffer were investigated to improve the sensitivity of the MB-based assay. After optimization, the standard curve for the MB-based assay was generated by plotting the B/B0 (B and B0 were defined as the OD450 in the presence and absence of CPPU, respectively) against the logarithm of CPPU concentration. The 50% inhibitory concentration value (IC50) calculated from the curves was used to evaluate assay sensitivity.
as §1
To obtain better analytical performance of the MB-based assay, the reaction conditions were investigated. First of all, the working concentrations of MB–CPPU–BSA and mAb 14G1–HRP were determined by checkerboard titration as 0.1 mg/mL and 1:6400 dilution, respectively (Table S1). Then, the influence of other parameters on the assay was also optimized, in which the IC50 value was used as the main criterion. The effects of different ionic strengths and different pH values of the PBS solution on antigen–antibody binding in the MB-based assay were evaluated (Figure S4a,b). […] The optimal methanol concentration was selected to be 5% for the lower IC50. To shorten the detection duration, the incubation time for the competitive reaction between MB–CPPU–BSA and free-CPPU for binding to mAb–HRP tracer was optimized in sequence. […] Shorter incubation times may result in insufficient antigen–antibody binding, while longer incubation times not only further increased the maximum intensity but also led to higher background signals from non-specific binding. Therefore, incubation was stopped after 20 min, and beads were washed to remove unbound antibody.

[3] = test system: anti-CPPU mAb 14G1–HRP; assay: as above; format: binding, mouse
[4] = test system: mAb (s5#34); conditions: cited from earlier work
[5] = test system: mAb, P6#42; conditions: cited from earlier work
[6] = test system: mAb; conditions: cited from earlier work
[7] = test system: mAb against CPPU; conditions: cited from earlier work
[8] = test system: pAb; set-up: method as in earlier work; conditions: cited from earlier work
[9] = test system: rats; conditions: cited from earlier work
[10] = test system: zebrafish; conditions: cited from earlier work

Structure (SMILES): Cc1ccc(NC(=O)N(C)C)cc1Cl [Chlorotoluron]
- icELISA CR [1]: <1.0%
- icELISA IC50 ([1]; optimal assay conditions): >2.5 ng/mL
- MB-Based Assay CR [2]: <0.6%
- MB-Based Assay IC50 ([2]; optimized conditions): >1.0 ng/mL

Structure (SMILES): Clc1ccccc1-c1nnc(-c2ccccc2Cl)nn1 [Clofentezine]
- icELISA CR [1]: <1.0%
- icELISA IC50 ([1]; optimal assay conditions): >2.5 ng/mL
- MB-Based Assay CR [2]: <0.6%
- MB-Based Assay IC50 ([2]; optimized conditions): >1.0 ng/mL

Structure (SMILES): CN(C)C(=O)Nc1ccc(Cl)c(Cl)c1 [Diuron]
- icELISA CR [1]: <1.0%
- icELISA IC50 ([1]; optimal assay conditions): >2.5 ng/mL
- MB-Based Assay CR [2]: <0.6%
- MB-Based Assay IC50 ([2]; optimized conditions): >1.0 ng/mL

Structure (SMILES): O=C(Nc1ccccc1)Nc1ccnc(Cl)c1 [Forchlorfenuron (CPPU), Forchlorfenuron]
- icELISA IC50 during optimization ([1]; 5% methanol, Figure S2c): 0.0372 ng/mL
- icELISA CR [1]: 100%
- icELISA IC50 ([1]; optimal assay conditions): 0.0253 ng/mL
- icELISA limit of detection (LOD, IC10) ([1]; optimal assay conditions): 0.002 ng/mL
- icELISA linear range (IC20–IC80) ([1]; optimal assay conditions): 0.005 to 0.231 ng/mL
- MB-Based Assay CR [2]: 100%
- estimated LOD in grape, MB-based assay ([2]; grape, considering dilution factor of the sample (100-fold)): 0.0168 µg/kg
- estimated LOD in kiwifruit, MB-based assay ([2]; kiwifruit, considering dilution factor of the sample (100-fold)): 0.0191 µg/kg
- MB-Based Assay IC50 ([2]; optimized conditions): 0.0061 ng/mL
- MB-based assay LOD ([2]; optimized conditions): 0.0004 ng/mL
- MB-based assay linear detection range (IC20–IC80) ([2]; optimized conditions): 0.0016 to 0.0259 ng/mL
- IC50, MB-based assay optimization ([3]; mAb-HRP 1:400, MB-CPPU-BSA 0.0125 μg/μL): 0.0315 ng/mL (≈ 0.127 nM)
- IC50, MB-based assay optimization ([3]; mAb-HRP 1:800, MB-CPPU-BSA 0.025 μg/μL): 0.0147 ng/mL (≈ 0.0593 nM)
- IC50, MB-based assay optimization ([3]; mAb-HRP 1:1600, MB-CPPU-BSA 0.05 μg/μL): 0.0139 ng/mL (≈ 0.0561 nM)
- IC50, MB-based assay optimization ([3]; mAb-HRP 1:3200, MB-CPPU-BSA 0.10 μg/μL): 0.0132 ng/mL (≈ 0.0533 nM)
- IC50, MB-based assay optimization ([3]; mAb-HRP 1:6400, MB-CPPU-BSA 0.20 μg/μL): 0.0140 ng/mL (≈ 0.0565 nM)
- dcELISA (mAb) LOD [4]: 0.01 ng/mL
- dcELISA IC50 ([4]; in buffer): 0.063 ng/mL
- LFIA IC50 [5]: 0.286 ng/mL
- LFIA LOD [5]: 0.045 ng/mL
- LFIA linear range [5]: 0.089 to 0.916 ng/mL
- icELISA (mAb) LOD [6]: 0.013 ng/mL
- icELISA (mAb) linear range [6]: 0.022 to 0.156 ng/mL
- icELISA IC50 [7]: 1.04 ng/mL
- icELISA LOD [7]: 0.16 ng/mL
- icELISA linear range [7]: 0.31 to 3.43 ng/mL
- dcELISA (pAb) IC50 [8]: 0.077 ng/mL
- dcELISA (pAb) LOD [8]: 0.012 ng/mL
- dcELISA (pAb) linear range [8]: 0.025-0.276 ng/mL
- toxic effects in rats [9]: potential adverse effects on the ovaries and on the production of steroid hormones
- toxic effects in zebrafish [10]: cardiac morphology deformation, cardiac contractile dysfunction, and erythrocyte reduction

Structure (SMILES): CON(C)C(=O)Nc1ccc(Cl)c(Cl)c1 [Linuron]
- icELISA CR [1]: <1.0%
- icELISA IC50 ([1]; optimal assay conditions): >2.5 ng/mL
- MB-Based Assay CR [2]: <0.6%
- MB-Based Assay IC50 ([2]; optimized conditions): >1.0 ng/mL

Structure (SMILES): O=C(Nc1ccccc1)Nc1cnns1 [Thidiazuron]
- icELISA CR [1]: <1.0%
- icELISA CR ([1]; listed as thidiazuron): negligible cross-reaction
- icELISA IC50 ([1]; optimal assay conditions): >2.5 ng/mL
- MB-Based Assay CR [2]: <0.6%
- MB-Based Assay CR ([2]; listed as thidiazuron): negligible cross-reaction
- MB-Based Assay IC50 ([2]; optimized conditions): >1.0 ng/mL
- dcELISA cross-reactivity (CR) ([4]; mAb s5#34): 71%

— article PMC10296238, “A Magnetic-Bead-Based Immunoassay with a Newly Developed Monoclonal Antibody for Rapid and Highly Sensitive Detection of Forchlorfenuron” (Biosensors, 2023)
